Results reported in patent US9084423B2, “Inhibition of bacterial biofilms with imidazole derivatives” (North Carolina State University, priority 2007, dated 2015).
Counter-ions that a name gives are not always drawn. One block for each compound: values may come before it.

What was measured:
P. aeruginosa = experiment: Biofilm inhibition screen of TABLE 1, P. aeruginosa; assay type: cell-based, Pseudomonas aeruginosa; parameters: key: “X” denotes biofilm inhibition; details: 500 μM active compound, 24 hours
Experimental: (§1) Each compound was assayed for the ability to inhibit the formation of P. aeruginosa biofilms. […] We employed a standard crystal violet reporter assay to assess for the formation of biofilms. Briefly, P. aeruginosa strain PAO1 was allowed to form biofilms in a multi-well plate in the absence or presence of our compounds. Planktonic (or free growing) bacteria were then removed, wells washed vigorously, and crystal violet added. Crystal violet stains the remaining bacteria which, following ethanol solubilization, can be quantitated by spectrophotometry (A540).
(§2) Active compounds were tested for inhibition of biofilm formation using various bacterial strains. Assays were performed as reported above, with 500 μM active compound, and 24 hours. “X” denotes biofilm inhibition.

V. Vulnificus = experiment: Biofilm inhibition screen of TABLE 1, V. vulnificus; assay type: cell-based, Vibrio vulnificus; parameters: key: “X” denotes biofilm inhibition; details: 500 μM active compound, 24 hours
Experimental: as §1, §2

H. Pacifica = experiment: Biofilm inhibition screen of TABLE 1, H. pacifica; assay type: cell-based, Halomonas pacifica; parameters: key: “X” denotes biofilm inhibition; details: 500 μM active compound, 24 hours
Experimental: as §1, §2

pre-formed PAO1 biofilms = experiment: Static biofilm dispersion assay, PAO1; assay type: cell-based; details: Pseudomonas aeruginosa, 24-hour pre-formed biofilm, 24 hours treatment
Experimental: (§3) One aspect associated with small molecule modulation of biofilm development is the ability to disperse a pre-formed biofilm. There have only been a limited number of examples in the literature of molecules that disperse bacterial biofilms. Banin et al., Appl. Environ. Microbiol., 2006, 72, 2064. L. M. Junker and J. Clardy, Antimicrob, Agents Ch., 2007, 51, 3582. Boles et al., Mol. Microbiol., 2005, 57, 1210. TAGE was assayed for its ability to disperse pre-formed PAO1 and PA14 biofilms. Each bacterial strain was allowed to form biofilms in a microtiter well for 24 hours in the absence of compound. […] After 24 hours, all the wells were washed vigorously to remove media and planktonic bacteria, and then were stained with crystal violet to quantify the amount of remaining biofilm Representative PAO1 results are depicted in FIG. 6.
(§4) An overnight culture of either PAO1 or PA14 was subcultured at an OD600 of 0.5 into LBNS and aliquoted (100 μL) into the wells of a 96-well PVC microtiter plate. […] The quantification of remaining biofilm was accomplished by transferring 125 μL of the ethanol solution into a polystyrene microtiter dish, which was read by spectrophotometry (A540). Percent dispersion was calculated in the same manner as percent biofilm inhibition described previously in this experimental section. […]

[1] = tested on: planktonic P. aeruginosa PA14; experiment: Planktonic growth (growth curves, colony counts), PA14; assay type: cell-based, Pseudomonas aeruginosa; details: growth curves and/or colony counts, presence vs absence of compound, at IC50 or as stated
[2] = tested on: planktonic P. aeruginosa PAO1; experiment: Planktonic growth (growth curves, colony counts), PAO1; assay type: cell-based, Pseudomonas aeruginosa; details: growth curves and/or colony counts, presence vs absence of compound, at IC50 or as stated
Description: To answer the question of whether the compounds were antibiotics or true inhibitors of biofilm formation, we tested the ability of both compounds to inhibit growth of planktonic P. aeruginosa. Growth was quantitated by measuring optical density at 600 nm. […]

[3] = tested on: P. aeruginosa strain PAO1; experiment: Static biofilm inhibition assay (crystal violet), PAO1; assay type: cell-based, Pseudomonas aeruginosa; details: for IC50: inhibition of biofilm formation, crystal violet, 24 hours
Experimental: as §1
(§5) An overnight culture of the bacterial strain being screened against was subcultured at an OD600 of 0.1 into the media used (listed below with strain) and then pipetted into test tubes along with a predetermined concentration of our compound of interest. Test tubes were then poured into tilted Petri dishes and 100 μL of media, strain and compound were then transferred into 96-well PVC microtiter plates. These microtiter plates were then covered, wrapped in Saran™ Wrap polyethylene film (S.C. Johnson, Racine, Wis.) and allowed to incubate at 37° C. for 24 hours. After that time, the medium was discarded and the plates were thoroughly washed with water. The remaining biofilm that was formed during incubation was stained with 100 μL of a 0.1% crystal violet solution and allowed to incubate at room temperature for 30 minutes. After 30 minutes, the crystal violet was discarded and washed thoroughly again with water. The remaining crystal violet that had stained the biofilm in the inside walls of the 96-well PVC plates was solubilized with 200 μL of 95% ethanol. The quantification of biofilm formation was accomplished by transferring 125 μL of the ethanol solution into a polystyrene microtiter dish, which was read by spectrophotometry (A540). After the background has been subtracted from each row, a percent inhibition can be calculated by dividing the amount of crystal violet in wells that contained compound by the amount of crystal violet in wells that contained bacteria only. Each concentration reported during the course of this study was repeated two to five times with each of those biofilm inhibition assays being done in 6 replicates each.
(§6) An overnight culture of the wild type strain was subcultured at an OD600 of 0.10 into LBNS along with a predetermined concentration of the small molecule to be tested for biofilm inhibition. Samples were then aliquoted (100 μL) into the wells of a 96-well PVC microtiter plate. The microtiter dishes were covered and sealed before incubation under stationary conditions at 37° C. for 24 hours. After that time, the medium was discarded and the plates thoroughly washed with water. The wells were then inoculated with a 0.1% aqueous solution of crystal violet (100 μL) and allowed to stand at ambient temperature for 30 minutes. Following another thorough washing with water the remaining stain was solubilized with 200 μL of 95% ethanol. Biofilm inhibition was quantitated by measuring the OD540 for each well by transferring 125 μL of the ethanol solution into a fresh polystyrene microtiter dish for analysis.
(§7) To examine each compound's ability to inhibit the formation of Pseudomonas aeruginosa biofilms, PAO1 and PA14 were employed as the target bacterial strains using a crystal violet reporter assay. G. A. O'Toole, R. Kolter, Mol. Microbiol. 1998, 28, 449. All compounds were initially screened at 500 μM for anti-biofilm activity.
An overnight culture of the wild type strain was subcultured at an OD600 of 0.10 into LBNS along with a predetermined concentration of the small molecule to be tested for biofilm inhibition. Samples were then aliquoted (100 μL) into the wells of a 96-well PVC microtiter plate. The microtiter dishes were covered and sealed before incubation under stationary conditions at 37° C. for 24 hours, After that time, the medium was discarded and the plates thoroughly washed with water. […]

pre-formed PA14 biofilms = experiment: Static biofilm dispersion assay, PA14; assay type: cell-based; details: Pseudomonas aeruginosa, 24-hour pre-formed biofilm, 24 hours treatment
Experimental: as §3, §4

P. aeruginosa PA14 = experiment: Static biofilm inhibition assay (crystal violet), PA14; assay type: cell-based, Pseudomonas aeruginosa; details: for IC50: inhibition of biofilm formation, crystal violet, 24 hours
Experimental: as §5, §6, §7
as §6, with “for 24 hours, After that” for “for 24 hours. After that”, “violet (100 pt) and allowed” for “violet (100 μL) and allowed”

[4] = listed as oroidin 4, Hydrochloride
[5] = listed as oroidin 5, Hydrochloride
[6] = listed as oroidin (5), Hydrochloride
[7] = listed as sventrin 24, Hydrochloride
[8] = listed as sventrin (6), Hydrochloride

SMILES: NC[C@@H]1Cc2nc(N)[nH]c2C[C@@H]1CN
P. aeruginosa biofilm inhibition (P. aeruginosa): X

SMILES: NC[C@H]1Cc2nc(N)[nH]c2C[C@@H]1CN
V. Vulnificus biofilm inhibition (V. Vulnificus): X | H. Pacifica biofilm inhibition (H. Pacifica): X | P. aeruginosa biofilm inhibition (P. aeruginosa): X

SMILES: Nc1nc(Cc2c[nH]cn2)c[nH]1
V. Vulnificus biofilm inhibition (V. Vulnificus): X | H. Pacifica biofilm inhibition (H. Pacifica): X

SMILES: Nc1nc(Cc2c[nH]c3ccccc23)c[nH]1
H. Pacifica biofilm inhibition (H. Pacifica): X | P. aeruginosa biofilm inhibition (P. aeruginosa): X

SMILES: Nc1nc(/C=C/CNC(=O)c2cc(Br)c(Br)[nH]2)c[nH]1
H. Pacifica biofilm inhibition (H. Pacifica): X

SMILES: Nc1ncc2n1CCC2
V. Vulnificus biofilm inhibition (V. Vulnificus): X

SMILES: NC1=N/C(=C\CCNC(=O)c2cc(Br)c(Br)[nH]2)C(=O)N1
H. Pacifica biofilm inhibition (H. Pacifica): X

EC50 (pre-formed PAO1 biofilms): 32.8 ± 4.7 µM | IC50 ([3]; Pseudomonas aeruginosa, PAO1): 2.84 µM | EC50 (pre-formed PA14 biofilms): 21.3 ± 3.9 µM | IC50 (P. aeruginosa PA14; Pseudomonas aeruginosa, PA14): 2.26 µM
SMILES: CCCCCCCCCCCCNC(=O)CCCc1c[nH]c(N)n1.Cl [Compound 12, 4-(2-amino-1H-imidazol-4-yl)-N-dodecyl-butyramide hydrochloride]
microbicidal effect on PA14 planktonic growth (in words) [1]: remained unchanged | microbicidal effect on PAO1 planktonic growth (in words) [2]: remained unchanged

SMILES: Nc1nc(CCCNC(=O)c2cc(Br)c[nH]2)c[nH]1 [drawing 73]
H. Pacifica biofilm inhibition (H. Pacifica): X | P. aeruginosa biofilm inhibition (P. aeruginosa): X

SMILES: Nc1nc(CCCNC(=O)c2cc(Br)c(Br)[nH]2)c[nH]1 [drawing 74]
H. Pacifica biofilm inhibition (H. Pacifica): X

IC50 ([3]; Pseudomonas aeruginosa, PAO1): 190 µM | IC50 (P. aeruginosa PA14; Pseudomonas aeruginosa, PA14): 166 µM
SMILES: Nc1ncc(/C=C/CNC(=O)c2cc(Br)c(Br)[nH]2)[nH]1 [oroidin, Oroidin Hydrochloride, reference compound]
microbicidal effect on PA14 planktonic growth (in words) [1, 4]: remained unchanged | microbicidal effect on PA14 planktonic growth (in words) [1, 5]: did not induce microbial cell death | microbicidal effect on PA14 planktonic growth (in words) [1, 6]: not due to a bactericidal effect | microbicidal effect on PAO1 planktonic growth (in words) [2, 4]: remained unchanged | microbicidal effect on PAO1 planktonic growth (in words) [2, 5]: did not induce microbial cell death | microbicidal effect on PAO1 planktonic growth (in words) [2, 6]: not due to a bactericidal effect | inhibition at 500 µM ([3]; Pseudomonas aeruginosa, PAO1): > 95% | inhibition of PAO1 biofilm formation (in words) ([3]; screen at 500 μM): very potent inhibitors | inhibition at 500 µM (P. aeruginosa PA14; Pseudomonas aeruginosa, PA14, 24 h): > 95% | inhibition of PA14 biofilm formation (in words) (P. aeruginosa PA14; screen at 500 μM): very potent inhibitors

IC50 [3]: 75 ± 5 µM | IC50 (P. aeruginosa PA14): 115 ± 3 µM
SMILES: Cn1c(C(=O)NC/C=C/c2cnc(N)[nH]2)cc(Br)c1Br [sventrin, Sventrin Hydrochloride, reference compound]
microbicidal effect on PA14 planktonic growth (in words) [1, 7]: did not induce microbial cell death | microbicidal effect on PA14 planktonic growth (in words) [1, 8]: not due to a bactericidal effect | microbicidal effect on PAO1 planktonic growth (in words) [2, 7]: did not induce microbial cell death | microbicidal effect on PAO1 planktonic growth (in words) [2, 8]: not due to a bactericidal effect
